Key:
[1] = Metal ion oxidative effects on sincalide with/without DTPA (RP-HPLC); format: physicochemical; conditions: analyzed within 8 hours
Protocol: Experiments were performed to determine whether these residues, as present in sincalide, were susceptible to oxidation by free metals. These experiments also examined the role of DTPA as a formulation excipient to chelate metals and thereby inhibit sincalide oxidation. FIGS. 2-4 show the three oxidized forms of sincalide containing either mono- or disulfoxides.
The experimental formulation (25 mL) solution with (+) and without (−) DTPA were individually spiked with nine metal ions, as summarized in Table 7.
Copper and manganese, in the absence of DTPA, have the greatest oxidative effect on the methionine residues of sincalide resulting in combined weight percentages of Met 3 and Met 6 monosulfoxides (vs sincalide) of 85.5 and 128.9, respectively. In addition to the presence of sincalide Met 3 and Met 6 monosulfoxides (tR≈14.8 min. {doublet} and tR≈18 min.), formation of sincalide disulfoxide (tR≈6.5 min.) was also noted in the cases of copper and manganese, but not with the other metals.

gallbladder = conditions: patients pretreated before hepatobiliary imaging; typical; cited from earlier work

combined percentages of Met 3 and Met 6 monosulfoxides (vs sincalide) ([1]; experimental formulation without DTPA spiked with copper (0.63 mM Cu2+)): 85.5% | combined percentages of Met 3 and Met 6 monosulfoxides (vs sincalide) ([1]; experimental formulation without DTPA spiked with manganese (0.18 mM Mn2+)): 128.9%
Compound: CSCC[C@H](NC(=O)[C@H](Cc1ccc(OS(=O)(=O)O)cc1)NC(=O)[C@@H](N)CC(=O)O)C(=O)NCC(=O)N[C@@H](Cc1c[nH]c2ccccc12)C(=O)N[C@@H](CCSC)C(=O)N[C@@H](CC(=O)O)C(=O)N[C@@H](Cc1ccccc1)C(N)=O [Sincalide, 1-De(5-oxo-L-glutamine-5-L-proline)-2-de-L-methioninecaerulein]
time to gallbladder contraction after sincalide injection (gallbladder): ≤ 15 min

Reference: US6803046B2, “Sincalide formulations” (Bracco International B.V., priority 2002, dated 2004)
